Assay results from PMC11881136, “Development of a Novel ^18F-Labeled Radioligand for Imaging Phosphodiesterase 7 with Positron Emission Tomography” (Molecular Pharmaceutics, 2025).
Where two headings read alike, the source gives them in different places.

How the values were obtained:
[1] = design: method as in PMID 32246980; details: cited from earlier work
PDE7 [2] = assay: Phosphodiesterase 7 inhibition assay (Eurofins); format: biochemical; details: for Inhibiton at 0.5 nM: PDE7, 0.5 nM
Protocol: (§1) The inhibition assay of phosphodiesterase 7 with compounds 1–7 was performed by Eurofins. The inhibition assay of other phosphodiesterases with compound 7 was performed by Reaction Biology Corporation at a concentration of 3 μM.

PDE7 [3] = biological target: PDE7; design: method as in PMID 32246980; details: read-out: binding affinity KD toward PDE7; cited from earlier work
PDE7 [4] = assay: PET imaging in rat brains; format: in vivo
Protocol: PET imaging was carried out as previously reported.[26] [^18F]7 (30–40 uCi) was administered to SD rats via the tail vein, and dynamic scans were conducted with a G8 scanner (Sofie) for 1 h (n = 4). In blocking studies, elacridar (5 mg/kg) was administered intravenously at 20 min before the administration of [^18F]7, and P7–2104 or 7 (3 mg/kg) was administered intravenously at 10 min before the administration of [^18F]7 (n = 3). PET data were analyzed with PMOD (PMOD Technologies LLC, Switzerland).

[5] = In vitro stability in formulation solution (saline); format: physicochemical; details: up to 60 or 120 min
[6] = In vitro stability in human serum; format: in vitro ADME; details: up to 60 or 120 min
[7] = Radiometabolic analysis in rats; format: in vivo; details: rat, 30 min post administration
Protocol: [^18F]7 was injected via the tail vein of SD rats and then euthanized 30 min after administration of [^18F]7 (0.1 mCi per rat, n = 2). The brain was collected, homogenized, and cold acetonitrile (0.2 mL) was added then centrifuged (14 000g, 5 min) at 4 °C. This step was repeated until there was no obvious precipitation formed. Then the supernatant was injected into a radioHPLC with unlabeled 7 as the internal standard. Both [^18F]7 and its ^18F-metabolites were collected by HPLC and then measured by γ counter. The same procedure was conducted for plasma.

[8] = Ex vivo whole-body biodistribution in CD-1 mice; design: species or system mouse
Protocol: Whole-Body biodistribution was carried out as previously reported.[27],[28] [^18F]7 (10 μCi/100 μL) was administered intravenously to CD-1 mice, which were sacrificed at 5, 15, 30, and 60 min after administration of [^18F]7 (n = 3). Tissues of interest were collected, weighted, and measured by a γ counter.

[9] = In vitro stability in rat serum; format: in vitro ADME; details: up to 60 or 120 min
[10] = In vitro stability in NHP serum; format: in vitro ADME; details: up to 60 or 120 min
[11] = In vitro stability in mouse serum; format: in vitro ADME; details: up to 60 or 120 min
other PDEs subfamilies = assay: Inhibition assay of other phosphodiesterases (Reaction Biology Corporation); format: biochemical; details: 3 μM; other than PDE4
Protocol: as §1

Sigma1 = Sigma1 (Homo sapiens, UniProt Q99720); assay: Off-target binding: Sigma1
Sigma1, sequence (Q99720 whole entry): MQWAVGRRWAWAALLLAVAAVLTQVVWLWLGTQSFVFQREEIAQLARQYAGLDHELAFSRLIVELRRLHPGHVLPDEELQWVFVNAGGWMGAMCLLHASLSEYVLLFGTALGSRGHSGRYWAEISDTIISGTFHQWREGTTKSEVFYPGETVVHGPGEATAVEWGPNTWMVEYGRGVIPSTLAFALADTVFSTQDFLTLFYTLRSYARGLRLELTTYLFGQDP

PDE4B = biological target: T1, PDE4B (Homo sapiens, UniProt Q07343); assay: Inhibition assay of other phosphodiesterases: PDE4B; format: biochemical
T1 construct: purchased Reaction Biology Corporation
T1 sequence (Q07343 whole entry, species assumed): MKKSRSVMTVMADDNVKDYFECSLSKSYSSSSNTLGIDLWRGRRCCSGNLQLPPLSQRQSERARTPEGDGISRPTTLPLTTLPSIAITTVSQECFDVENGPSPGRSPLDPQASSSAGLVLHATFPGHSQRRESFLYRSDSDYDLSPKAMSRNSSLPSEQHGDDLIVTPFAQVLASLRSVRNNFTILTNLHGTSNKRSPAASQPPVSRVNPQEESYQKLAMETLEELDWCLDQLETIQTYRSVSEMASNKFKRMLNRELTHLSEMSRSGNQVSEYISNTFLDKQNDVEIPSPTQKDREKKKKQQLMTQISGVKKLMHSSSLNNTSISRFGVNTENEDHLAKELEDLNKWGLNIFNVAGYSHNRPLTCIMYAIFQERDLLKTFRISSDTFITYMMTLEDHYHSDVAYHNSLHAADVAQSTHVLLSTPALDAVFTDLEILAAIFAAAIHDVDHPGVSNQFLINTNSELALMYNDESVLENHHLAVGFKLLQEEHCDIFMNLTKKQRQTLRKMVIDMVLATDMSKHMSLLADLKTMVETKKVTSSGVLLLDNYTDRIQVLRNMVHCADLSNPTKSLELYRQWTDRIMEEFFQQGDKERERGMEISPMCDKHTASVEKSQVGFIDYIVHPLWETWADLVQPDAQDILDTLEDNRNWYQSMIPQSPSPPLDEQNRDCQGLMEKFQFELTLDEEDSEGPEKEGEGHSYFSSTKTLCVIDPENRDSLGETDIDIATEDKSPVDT
Protocol: as §1

[12] = Log D, shake flask method; format: physicochemical; details: n-octanol/PBS
Protocol: PBS buffer (0.01 M) and n-octanol were presaturated with each other overnight before the measurement. The PDE7 ligand [^18F]7, PBS (0.01 M, 5 mL), and n-octanol (5 mL) were combined and vortexed for 3 min, and then centrifuged (∼14 000 rpm, 5 min). The PBS fraction and n-octanol fraction were weighted and counted by γ counter. The log D was calculated as log[(radioactivityn-octanol/weightn-octanol)/(radioactivityPBS/weightPBS)].

5-HT2B = 5-HT2B (Homo sapiens, UniProt P41595); assay: Off-target binding: 5-HT2B
5-HT2B, sequence (P41595 whole entry, species assumed): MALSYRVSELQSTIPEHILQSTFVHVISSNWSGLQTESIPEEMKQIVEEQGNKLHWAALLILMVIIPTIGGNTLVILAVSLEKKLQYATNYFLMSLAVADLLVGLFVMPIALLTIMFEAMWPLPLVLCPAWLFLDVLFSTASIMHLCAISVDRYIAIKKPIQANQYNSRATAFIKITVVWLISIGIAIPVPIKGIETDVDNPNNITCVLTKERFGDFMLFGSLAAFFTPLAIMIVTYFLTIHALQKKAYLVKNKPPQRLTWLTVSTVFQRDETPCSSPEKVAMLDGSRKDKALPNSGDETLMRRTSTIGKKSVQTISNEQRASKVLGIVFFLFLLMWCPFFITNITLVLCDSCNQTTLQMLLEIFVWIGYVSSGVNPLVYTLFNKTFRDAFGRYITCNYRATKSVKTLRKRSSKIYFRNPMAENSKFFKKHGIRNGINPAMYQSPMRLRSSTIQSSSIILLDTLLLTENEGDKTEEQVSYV

66 major CNS targets = assay: Off-target binding profile against 66 major CNS targets; details: 10 μM; except 5-HT2B and Sigma1
PDE4 = assay: Inhibition assay of other phosphodiesterases: PDE4; format: biochemical; details: 3 μM
Protocol: as §1

PDE7 [13] = assay: In vitro autoradiography in rat brain sections; format: binding; details: blocker 10 μM
Protocol: Autoradiography studies were conducted as previously reported.[24],[25] In brief, SD rat brain sections ([…]) were preincubated with buffer (Tris-HCl, 50 mM) at ambient temperature for 20 min and then incubated with [^18F]7 (1 μCi/mL) for 30 min. After that, the brain sections were washed with cold buffer and water, dried with cold air, and exposed to the phosphor plate (12 h). In blocking studies, brain sections were incubated with [^18F]7 in the presence of compound 7 (10 μM) or P7–2104 (10 μM).

PDE7 [14] = test system: PDE7; design: method as in PMID 26330158; details: read-out: PDE7 inhibitory potency IC50; cited from earlier work

CN(C)C(=O)c1cccc(F)c1Oc1ccc(Cl)c2c1C1(CCCCC1)OC(=O)N2 [Compound 1, 2-((8-Chloro-2-oxo-1,2-dihydrospiro[benzo[d][1,3]oxazine-4,1′-cyclohexan]-5-yl)oxy)-3-fluoro-N,N-dimethylbenzamide]
brain uptake [1]: 0.25 %ID/g
IC50 (PDE7 [2]): 0.41 nM
Inhibiton at 0.5 nM (PDE7 [2]): 50%
Kd (PDE7 [3]): 0.8 nM

O=C1Nc2c(Cl)ccc(Oc3c(F)cccc3C(=O)N3CC([18F])C3)c2C2(CCCCC2)O1 [[^18F]7]
IC50 (PDE7 [2]): 0.18 nM
selectivity for PDE7 over other PDE subfamilies (PDE7 [2]): > 400 fold
SUVpeak in striatum after elacridar (PDE7 [4]; SD rats, elacridar 5 mg/kg i.v. 20 min before tracer): 2.8
SUVpeak in striatum, baseline (PDE7 [4]; SD rats, i.v., baseline): 0.35
increase of SUVpeak in striatum by elacridar (PDE7 [4]; elacridar 5 mg/kg vs baseline): 700%
in vitro stability in saline [5]: no obvious decomposition or metabolite was observed
in vitro stability in human serum [6]: no obvious decomposition or metabolite was observed
intact parent fraction in brain [7]: 92%
intact parent fraction in plasma [7]: 67%
bone uptake at 5 min ([8]; 5 min): 1.6 %ID/g
bone uptake at 60 min ([8]; 60 min): 0.3 %ID/g
initial radioactivity in liver, small intestine, kidney, pancreas, lung, and heart ([8]; i.v., initially): > 5 %ID/g
brain uptake (biodistribution) ([8]; initially): low uptake
in vitro stability in rat serum [9]: no obvious decomposition or metabolite was observed
in vitro stability in NHP serum [10]: no obvious decomposition or metabolite was observed
in vitro stability in mouse serum [11]: no obvious decomposition or metabolite was observed

CN(C)C(=O)c1cc(F)ccc1Oc1ccc(Cl)c2c1C1(CCCCC1)OC(=O)N2 [Compound 3, 2-((8-Chloro-2-oxo-1,2-dihydrospiro[benzo[d][1,3]oxazine-4,1′-cyclohexan]-5-yl)oxy)-5-fluoro-N,N-dimethylbenzamide]
Inhibiton at 0.5 nM (PDE7 [2]): -17%

O=C1Nc2c(Cl)ccc(Oc3c(F)cccc3C(=O)N3CCC3)c2C2(CCCCC2)O1 [Compound 5, 5-(2-(Azetidine-1-carbonyl)-6-fluorophenoxy)-8-chlorospiro[benzo[d][1,3]oxazine-4,1′-cyclohexan]-2(1H)-one]
IC50 (PDE7 [2]): 0.04 nM
Inhibiton at 0.5 nM (PDE7 [2]): 68%

CN(C)C(=O)c1ccc(F)cc1Oc1ccc(Cl)c2c1C1(CCCCC1)OC(=O)N2 [Compound 2, 2-((8-Chloro-2-oxo-1,2-dihydrospiro[benzo[d][1,3]oxazine-4,1′-cyclohexan]-5-yl)oxy)-4-fluoro-N,N-dimethylbenzamide]
Inhibiton at 0.5 nM (PDE7 [2]): 6%

CN(C(=O)c1cccc(F)c1Oc1ccc(Cl)c2c1C1(CCCCC1)OC(=O)N2)C1CC1 [Compound 6, 2-((8-Chloro-2-oxo-1,2-dihydrospiro[benzo[d][1,3]oxazine-4,1′-cyclohexan]-5-yl)oxy)-N-cyclopropyl-3-fluoro-N-methylbenzamide]
Inhibiton at 0.5 nM (PDE7 [2]): -13%

CN(C)C(=O)c1c(F)cccc1Oc1ccc(Cl)c2c1C1(CCCCC1)OC(=O)N2 [Compound 4, 2-((8-Chloro-2-oxo-1,2-dihydrospiro[benzo[d][1,3]oxazine-4,1′-cyclohexan]-5-yl)oxy)-6-fluoro-N,N-dimethylbenzamide]
Inhibiton at 0.5 nM (PDE7 [2]): -10%

O=C1Nc2c(Cl)ccc(Oc3c(F)cccc3C(=O)N3CC(F)C3)c2C2(CCCCC2)O1 [Compound 7, 8-Chloro-5-(2-fluoro-6-(3-fluoroazetidine-1-carbonyl)phenoxy)spiro[benzo[d][1,3]oxazine-4,1′-cyclohexan]-2(1H)-one]
IC50 (PDE7 [2]): 0.18 nM
selectivity for PDE7 over other PDE subfamilies (PDE7 [2]): > 400 fold
Inhibiton at 0.5 nM (PDE7 [2]): 51%
reduction of [18F]7 SUVpeak in striatum (PET blocking) (PDE7 [4]; blocker 3 mg/kg i.v. with elacridar 5 mg/kg, SD rats): 51%
inhibition of other PDEs subfamilies (other PDEs subfamilies): < 50 % inhibition
Ki (Sigma1): 7410 nM
IC50 (PDE4B): 77.3 nM
PDE4B inhibition (PDE4B; 3 μM): 92 % inhibition
logD [12]: 3.27
Ki (5-HT2B): 3360 nM
off-target binding (>50% inhibition) against 66 major CNS targets (66 major CNS targets): No significant off-target binding
activity against PDE4 (PDE4): moderately active
reduction of [18F]7 radioactivity signal in striatum (autoradiography blocking) (PDE7 [13]): 56%

O=C1Nc2c(Cl)ccc(OCC[18F])c2C2(CCCCC2)N1 [[^18F]MICA-003]
IC50 (PDE7 [14]): 17 nM
